Measured values as given in US7863326B2, “Pharmaceutical compositions comprising ascorbic acid for the treatment of fungal superinfections and fungal recurrences” (Polichem S.A., priority 2003, dated 2011).

How the values were obtained:
Candida [1] = experiment: Double-blind placebo-controlled study of preventing Candida reinfection after miconazole in women with recurrent vaginal candidiasis; type: in vivo
Source text: Forty women with an exacerbation of recurrent vaginal candidiasis underwent a follow up preventative therapy with ascorbic acid. Most important inclusion criteria were: adult women in fertile age (18-50); ≧3 episodes of acute vaginal candidiasis in the last 12 months; acute vaginal candidiasis in the last 14 days; eradication of Candida (fresh examination) after an appropriate miconazole treatment. Exclusion criteria were: severe vaginal infections; HIV positivity; diabetes; pregnant women. The design was double blind, parallel groups versus placebo.
After completion of the standard treatment with miconazole, all the responders (patients with eradication of Candida at the end of treatment) were randomized to a standardized preventative vaginal application of ascorbic acid (in form of gel, containing 7.1% ascorbic acid as the only active ingredient, same composition as per the Example 1) or to an undistinguishable placebo. The product was applied once daily in the evening, before going to bed, for 6 consecutive days. The 6-day cycle was repeated monthly for 6 consecutive months, starting on the first month immediately after patient randomization; during the following 5 months, the therapeutic cycle with ascorbic acid was started on the day after termination of cyclic menses. Primary endpoint of the study was the occurrence of episodes of Candida reinfection, confirmed by fresh examination of the vaginal smear. In case of reinfection, this was treated with a further standard miconazole treatment and the follow up with ascorbic acid was continued immediately after confirmation of microbiological eradication. All patients in the ascorbic acid group terminated the study, 2 patients of placebo group were lost to follow up. […] The protection factor of ascorbic acid against Candida reinfection was 46% in this investigation.

Candida [2] = experiment: Randomized double-blind placebo-controlled study of preventing Candida superinfection after standard metronidazole treatment; type: in vivo, patients
Method: Two hundred patients with a negative microbiology of their vaginal specimen after a standard metronidazole treatment have been included in a controlled study aimed at the evaluation of ascorbic acid capability to prevent Candida superinfection in those patients. The study was randomized, double blind, parallel groups versus placebo. As active treatment, a 6-day course of vaginal tablets, containing 250 mg silicon-coated ascorbic acid as per the Example 2, was given once monthly for 3 months starting after menses. Placebo was undistinguishable from active treatment. Ninety-five patients in the active group and 92 respectively in the placebo group terminated the study and were included in the efficacy analysis. […] The protection factor of ascorbic acid against Candida superinfection in this experiment was 40%.

[3] = test system: experimental renal candidiasis; settings: rats, orally supplemented to the diet; evident at very low dose, disappearing at a higher dose level; cited from earlier work

Compound: O=C1O[C@H]([C@@H](O)CO)C(O)=C1O [ascorbic acid, L-ascorbic acid]
- episodes of reinfection (Candida [1]; 7.1% ascorbic acid vaginal gel once daily for 6 days, cycle repeated monthly for 6 months, reinfection confirmed by fresh examination of vaginal smear): 15 episodes
- acute infection:patient rate (Candida [1]; 7.1% ascorbic acid vaginal gel, 6-day cycles monthly for 6 months): 0.75 /6 months
- protection factor against Candida reinfection (Candida [1]; versus placebo, 6 months): 46%
- patients with Candida superinfection (percent of group) (Candida [2]; vaginal tablets with 250 mg silicon-coated ascorbic acid, 6-day course once monthly for 3 months): 9%
- patients with Candida superinfection (Candida [2]; vaginal tablets with 250 mg silicon-coated ascorbic acid, 6-day course once monthly for 3 months, 95 patients analysed): 9 patients
- protection factor against Candida superinfection (Candida [2]; versus placebo, 3 months): 40%
- effect on the resistance to experimental renal candidiasis [3]: inconclusive
